The subject of this experiment is Bacillus atrophaeus spore strips. The experiment is described as follows: Microbial decontamination barrel: sterilization of Steritest biological indicator spore strips. On the procedure:
Barrel Setup: All cycles were performed using a 48.8 gallon steel barrel with an airtight lid sealed with a rubber gasket.
Barrels were fitted with an SEC Sensor to monitor EO concentration throughout the cycle
The unit utilizes AN 7916 Anprolene gas release ampoules, which contain approximately 17.6 g of EO. The number of ampoules can be adjusted according to load weight.
Barrels were fitted with an observation chamber containing a chemical integrator, referred to a dosimeter. This allows sterilization progress to be monitored in real time with no disruption to the cycle.
An external recirculating abator cartridge was attached to the lid of the barrel to neutralize EO when the cycle is complete.
Humidichips, a Madgetech Datalogger, and a Steritest biological indicator including a Dosimeter and a Bacillus atrophaeus spore strip, were placed in the bottom of the barrel. An AN 7916 EO 17.6 g ampule was activated then placed in the bottom of the barrel.
Further, paper represents a reasonable proxy for agricultural materials such as hemp and marijuana, as all of these materials are all cellulosic materials.
In this example, the barrel was loaded with 150 lbs of paper. Humidichips, a Madgetech Datalogger, and a Steritest were placed in the middle of the load. The Barrel was filled to the top with cloth materials (which are also cellulosic materials). […]

Molecules are shown by their SMILES.

From US20200296959A1, “DISINFECTION AND/OR STERILIZATION OF AGRICULTURAL CROPS” (priority 2019, published 2020) come the findings set out here.

Regarding `C1CO1` [ethylene oxide], the “ethylene oxide levels sufficient to kill biological surrogates (Bacillus atrophaeus) included with each load” value (microbial decontamination barrel, each load) is given as “sufficient to kill 10^6 biological surrogates”. Besides, under “seven 2-4 day cycles, 48.8 gallon barrel, 17.6 g EO ampoule, room temperature (around 20° C.), empty and paper loads”, the “sterilization of Bacillus atrophaeus spore strips contained in the Steritest” value was “successfully sterilized”.
